Consider three molecules from article PMC10095932 (Molecules, 2023).

Like-named read-outs stand apart in the source and are kept apart here. Where a SMILES comes first, the peptide text is derived from it. Bridges are numbered along the chain shown (N, C = ends). Bounds are passed on as bounds.

One test deals with T1, human NPR-A (Homo sapiens, UniProt P16066).
T1 construct: expressed in transfected cells; host or cells: HEK 293 cells, transient, Lipofectamine 2000
T1 sequence (P16066 33-1061): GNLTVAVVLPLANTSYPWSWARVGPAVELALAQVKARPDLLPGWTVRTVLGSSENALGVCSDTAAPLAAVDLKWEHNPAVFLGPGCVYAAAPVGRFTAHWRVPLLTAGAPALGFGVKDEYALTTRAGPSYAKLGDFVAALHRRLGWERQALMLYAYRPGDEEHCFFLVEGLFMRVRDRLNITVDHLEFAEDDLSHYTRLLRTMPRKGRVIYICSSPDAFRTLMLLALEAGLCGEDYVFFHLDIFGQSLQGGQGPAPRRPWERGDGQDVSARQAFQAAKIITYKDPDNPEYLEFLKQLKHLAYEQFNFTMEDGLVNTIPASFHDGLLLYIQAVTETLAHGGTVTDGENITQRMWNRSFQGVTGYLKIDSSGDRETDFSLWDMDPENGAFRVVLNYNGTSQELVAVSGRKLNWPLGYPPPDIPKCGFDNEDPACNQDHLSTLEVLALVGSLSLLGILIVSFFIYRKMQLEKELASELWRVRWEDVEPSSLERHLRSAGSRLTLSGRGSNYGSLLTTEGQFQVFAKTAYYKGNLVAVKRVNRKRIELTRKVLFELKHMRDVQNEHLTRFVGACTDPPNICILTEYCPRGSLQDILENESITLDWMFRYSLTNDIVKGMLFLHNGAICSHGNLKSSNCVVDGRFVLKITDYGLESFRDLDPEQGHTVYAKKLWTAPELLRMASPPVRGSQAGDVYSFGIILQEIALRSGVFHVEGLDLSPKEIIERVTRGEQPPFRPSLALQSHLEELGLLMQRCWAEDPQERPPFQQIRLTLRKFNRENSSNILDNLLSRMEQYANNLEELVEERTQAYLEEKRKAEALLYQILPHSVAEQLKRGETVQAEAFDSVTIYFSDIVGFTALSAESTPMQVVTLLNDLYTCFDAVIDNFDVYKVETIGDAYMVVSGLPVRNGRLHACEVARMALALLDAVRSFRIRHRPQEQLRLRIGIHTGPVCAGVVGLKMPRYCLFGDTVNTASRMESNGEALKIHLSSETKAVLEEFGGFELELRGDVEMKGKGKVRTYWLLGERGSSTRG
The test is described as follows: cGMP ALPHAscreen, cGMP production in HEK 293 cells transiently overexpressing hNPR-A. To be noted: HEK 293 cells overexpressing hNPR-A; for Emax at 10 µM: HEK293, read-out: cGMP production, % of the maximum response (compared with DNP, hANP, hBNP); for EC50: 30 min at 37 °C, cGMP ALPHAscreen, three separate experiments in triplicate, read-out: hNPR-A EC50 (95% CI), potency to stimulate cGMP production. The format is cell-based. On the procedure:
(§1) Cells were cultured at 5% CO2 and 37 °C. HEK 293 cells were cultured in high glucose DMEM (Gibco, Carlsbad, CA, USA) supplemented with 10% FBS, and 1% penicillin/streptomycin. HEK 293 cells were seeded in media lacking penicillin/streptomycin 24 to 48 h pre-transfection. PC12 cells were cultured in high glucose DMEM (Gibco) supplemented with 10% FBS and 1% penicillin/streptomycin.
HEK 293 cells were transfected using the lipofectamine 2000 transfection protocol (Invitrogen). Cells (95% confluence) were transfected with 45% pcDNA3.1/hNPR-A, 45% pcDNA3.1, and 10% pEGFP-NI to the optimal DNA concentration specified in the protocol. The co-transfection with pEGFP-NI plasmid allowed the determination of the transfection efficiency. This was assessed by the estimation of the number of GFP-expressing cells using an Olympus IX70 inverted fluorescence microscope. Transfected cells were used for assay purposes within 24 h.
(§2) The cGMP ALPHAscreen was performed using the ALPHAscreen Protein A detection kit and the biotinylated cGMP supplement (Perkin Elmer, Waltham, MA, USA) with rabbit anti-cGMP polyclonal antibody (Biovision, Mountain View, CA, USA). Cells were detached from the flask and the resulting pellet was resuspended in stimulation buffer (HBSS supplemented with 0.1% w/v BSA and 1 mM IBMX at 37 °C). Cells were added to a white 384-well Optiplate (Perkin Elmer, Waltham, USA) to 30,000 cells per well for HEK 293 cells and 10,000 cells per well for PC12 cells. Cells were incubated with different concentrations of test peptides (concentration range of 1 × 10^−5 to 1 × 10^−11 M in stimulation buffer) at 37 °C for 30 min. Cells were lysed with lysis buffer (1 M HEPES, 0.3% Tween-20, 1% BSA in H2O, pH 7.4). Then 5 μL acceptor-bead mix was added to each well under subdued lighting conditions, followed by 5 μL of donor-bead mix. Plates were incubated for ~12 h, slowly shaking at room temperature. After incubation, the ALPHAscreen signal was measured using an EnVision plate reader (Perkin Elmer). The standard curve consisted of cGMP in a concentration range of 1 × 10^−6 to 1 × 10^−12 M. All data points were acquired in triplicate and were analyzed using GraphPad Prism 5.0 software (GraphPad Software, Inc., San Diego, CA, USA).
For orientation: Alpha assays give light when donor and acceptor beads are brought close together.

For a further test, the target named is T2, rat NPR-A (Rattus norvegicus, UniProt P18910).
T2 construct: endogenous in cells; host or cells: rat PC12 cells
T2 sequence (P18910 29-1057): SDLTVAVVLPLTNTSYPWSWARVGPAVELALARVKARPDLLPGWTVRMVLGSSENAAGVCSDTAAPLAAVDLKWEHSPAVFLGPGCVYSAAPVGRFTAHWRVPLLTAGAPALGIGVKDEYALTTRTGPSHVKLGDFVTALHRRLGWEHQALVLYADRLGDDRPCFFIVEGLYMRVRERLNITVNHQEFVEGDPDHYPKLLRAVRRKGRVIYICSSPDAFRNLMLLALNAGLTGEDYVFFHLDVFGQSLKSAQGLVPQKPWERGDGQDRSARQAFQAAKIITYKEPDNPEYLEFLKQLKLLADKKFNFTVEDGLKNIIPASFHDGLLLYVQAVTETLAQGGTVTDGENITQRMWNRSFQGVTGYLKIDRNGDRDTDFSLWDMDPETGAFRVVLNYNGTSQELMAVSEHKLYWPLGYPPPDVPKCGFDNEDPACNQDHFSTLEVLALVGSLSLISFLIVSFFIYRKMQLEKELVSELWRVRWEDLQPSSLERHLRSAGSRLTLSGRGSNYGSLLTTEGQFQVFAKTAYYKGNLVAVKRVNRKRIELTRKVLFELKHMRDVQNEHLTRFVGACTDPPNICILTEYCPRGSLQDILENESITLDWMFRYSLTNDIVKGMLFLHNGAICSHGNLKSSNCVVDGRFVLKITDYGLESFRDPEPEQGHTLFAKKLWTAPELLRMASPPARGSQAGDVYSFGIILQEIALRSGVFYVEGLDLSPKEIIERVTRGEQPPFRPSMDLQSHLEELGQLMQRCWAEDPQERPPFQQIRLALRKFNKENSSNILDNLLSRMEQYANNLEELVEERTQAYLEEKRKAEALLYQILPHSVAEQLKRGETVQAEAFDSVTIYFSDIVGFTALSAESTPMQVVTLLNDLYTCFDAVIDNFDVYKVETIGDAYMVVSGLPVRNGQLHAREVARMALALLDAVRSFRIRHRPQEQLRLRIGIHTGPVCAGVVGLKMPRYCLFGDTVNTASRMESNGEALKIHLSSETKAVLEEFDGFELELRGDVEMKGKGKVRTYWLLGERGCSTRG
The test is described as follows: cGMP ALPHAscreen, cGMP production in PC12 cells. The format is cell-based. To be noted: for EC50: PC12 cells, cGMP ALPHAscreen. On the procedure:
NP activity can be determined by the effectiveness of the peptide to elicit cGMP production through NPR-A. The cGMP ALPHAscreen evaluates the ability of peptides to stimulate cGMP production in cells through a non-radioactive, homogenous, proximity assay which encompasses […]. […] In order to evaluate the potency of TNPa-e at rNPR-A, TNPa-e were evaluated using the cGMP ALPHAscreen in rat PC12 cells.
as §1, §2

The mark [1] stands for this setting: 30 min at 37 °C, three to five separate experiments in triplicate, read-out: rNPR-A EC50 (95% CI), potency to stimulate cGMP production.

The EC50 is the concentration at which the effect is half-maximal. As for `CC[C@H](C)[C@@H]1NC(=O)[C@H](Cc2c[nH]cn2)NC(=O)[C@H](CC(=O)O)NC(=O)[C@H](CC(C)C)NC(=O)[C@@H]2CCCN2C(=O)[C@H](CC(C)C)NC(=O)CNC(=O)[C@H](Cc2ccccc2)NC(=O)[C@@H](NC(=O)CNC(=O)[C@H](CC(=O)O)NC(=O)CNC(=O)[C@@H](NC(=O)[C@H](CCCCN)NC(=O)[C@@H]2CCCN2C(=O)[C@H](CC(=O)O)NC(=O)[C@@H](N)CO)[C@@H](C)CC)CSSC[C@@H](C(=O)N[C@@H](CC(N)=O)C(=O)N[C@@H](CCCNC(=N)N)C(=O)N2CCC[C@H]2C(=O)N[C@H](C(=O)N[C@@H](CCC(N)=O)C(=O)N[C@@H](CC(N)=O)C(=O)N[C@@H](CCCNC(=N)N)C(=O)N2CCC[C@H]2C(=O)N[C@@H](CCCCN)C(=O)N[C@@H](CCCCN)C(=O)O)C(C)C)NC(=O)CNC(=O)[C@H](CC(C)C)NC(=O)CNC(=O)[C@H](CO)NC(=O)[C@H](C(C)C)NC(=O)[C@H](CO)NC(=O)CNC1=O` [TNPb] (H-SDPKIGDGCFGLPLDHIGSVSGLGCNRPVQNRPKK-OH; disulfide 9-25), the Emax at 10 µM at human NPR-A is ~30%. Further, the EC50 on human NPR-A was > 10000 nM; at rat NPR-A (setting [1]) it was 1200 nM; at rat NPR-A (read-out: EC50 at rNPR-A), > 1000 nM.
Take `CC[C@H](C)[C@H](NC(=O)[C@H](CCCCN)NC(=O)[C@H](CO)NC(=O)[C@H](CC(=O)O)NC(=O)[C@@H](N)CO)C(=O)NCC(=O)N[C@@H](CC(=O)O)C(=O)NCC(=O)N[C@H]1CSSC[C@@H](C(=O)N[C@@H](CC(N)=O)C(=O)N[C@@H](CCCNC(=N)N)C(=O)N2CCC[C@H]2C(=O)N[C@H](C(=O)N[C@@H](CCC(N)=O)C(=O)N[C@@H](CC(N)=O)C(=O)N[C@@H](CCCNC(=N)N)C(=O)N2CCC[C@H]2C(=O)N[C@@H](CCCCN)C(=O)N[C@@H](CCC(N)=O)C(=O)N[C@H](C(=O)N2CCC[C@H]2C(=O)NCC(=O)NCC(=O)N[C@@H](CO)C(=O)O)[C@@H](C)CC)C(C)C)NC(=O)CNC(=O)[C@H](CC(C)C)NC(=O)CNC(=O)[C@H](CO)NC(=O)[C@H](C(C)C)NC(=O)[C@H](CO)NC(=O)CNC(=O)[C@H]([C@@H](C)CC)NC(=O)[C@H](Cc2c[nH]cn2)NC(=O)[C@H](CC(=O)O)NC(=O)[C@H](CC(C)C)NC(=O)[C@@H]2CCCN2C(=O)[C@H](CC(C)C)NC(=O)CNC(=O)[C@H](Cc2ccccc2)NC1=O` [TNPe] (H-SDSKIGDGCFGLPLDHIGSVSGLGCNRPVQNRPKQIPGGS-OH; disulfide 9-25): the Emax at 10 µM at human NPR-A is < 20%. Besides, the EC50 on human NPR-A was > 10000 nM; on rat NPR-A (setting [1]), 1800 nM; at rat NPR-A (read-out: EC50 at rNPR-A), > 1000 nM.
Take `CC[C@H](C)[C@@H]1NC(=O)[C@H](CCCNC(=N)N)NC(=O)[C@H](CC(=O)O)NC(=O)[C@H]([C@@H](C)CC)NC(=O)[C@@H]2CCCN2C(=O)[C@H](Cc2ccccc2)NC(=O)CNC(=O)[C@H](Cc2ccccc2)NC(=O)[C@@H](NC(=O)CNC(=O)[C@H](CC(N)=O)NC(=O)CNC(=O)[C@@H](NC(=O)[C@H](CCCCN)NC(=O)[C@@H]2CCCN2C(=O)[C@H](CC(=O)O)NC(=O)[C@@H](N)CO)[C@@H](C)CC)CSSC[C@@H](C(=O)N[C@@H](CC(N)=O)C(=O)N[C@@H](CCCNC(=N)N)C(=O)N[C@@H](CC(C)C)C(=O)N[C@H](C(=O)N[C@@H](CCC(N)=O)C(=O)N[C@@H](CC(N)=O)C(=O)N2CCC[C@H]2C(=O)N2CCC[C@H]2C(=O)N[C@@H](CCCCN)C(=O)N2CCC[C@H]2C(=O)N[C@H](C(=O)N[C@@H](CO)C(=O)NCC(=O)N[C@@H](CCC(=O)O)C(=O)N[C@@H](CO)C(=O)O)[C@@H](C)CC)C(C)C)NC(=O)CNC(=O)[C@H](CC(C)C)NC(=O)CNC(=O)[C@H](CO)NC(=O)[C@H](C(C)C)NC(=O)[C@H](CO)NC(=O)CNC1=O` [TNPd] (H-SDPKIGNGCFGFPIDRIGSVSGLGCNRLVQNPPKPISGES-OH; disulfide 9-25): at human NPR-A, the Emax at 10 µM is ~30% and the concentration for a half-maximal effect (EC50) was > 10000 nM. In addition, at rat NPR-A (setting [1]), the EC50 is 18 nM. For the same molecule, the “selectivity / difference in potency for rNPR-A over hNPR-A” value at rat NPR-A (rNPR-A (PC12) versus hNPR-A (HEK 293) cGMP potency) is 560 fold.
